Tested on: 885724-159-R-J1-PDC KRAS PDC multicell spheroid viability
Experiment: Anticancer human tumor 885724-159-R-J1-PDC patient-derived pancreatic adenocarcinoma cell line growth inhibition [KRAS2]
Conditions: for IC50: curve of first compound; for viability, T/C: stronger effect = lower value
From the text: Multicellular complex tumor spheroid response to RAS pathway inhibitors in combination with a targeted agents in patient-derived cell lines with oncogenic KRAS variants from multiple cancer types
A high-throughput screen of multi-cell type tumor spheroids was designed to identify active combinations of targeted small molecules and KRAS pathway inhibitors. Complex spheroids include a stromal component modeled by human endothelial cells (HUVEC) and fibroblasts modeled by human mesenchymal stem cells (MSCs). The concentration ranges selected for each drug and investigational agent were based upon clinically achievable concentrations if the clinical Cmax of the agent was known.
Compounds. The drugs and investigational agents: BI-3406 (NSC825286), BAY-293 (NSC824723), batoprotafib (TNO155; NSC825523), sotorasib (AMG 510; NSC818433), MRTX1257 (NSC819558), elimusertib (BAY 1895344; NSC800525), molibresib (GSK525762; NSC774829), temuterkib (LY3214996; NSC803410), venetoclax (NSC766270), alisertib (NSC759677), olaparib (NSC753686), talazoparib (NSC767125), erdafitinib (NSC781556), ipatasertib (NSC767898), cabozantinib (NSC761068), nintedanib (NSC756659), abemaciclib (NSC768073), docetaxel (NSC628503), trametinib (NSC758246), and sapanisertib (NSC764658) were obtained from the National Cancer Institute (NCI) Developmental Therapeutics Program Chemical Repository. The FDA-approved anticancer drug set is available from the Developmental Therapeutics Program. […] The stock solutions were prepared in dimethyl sulfoxide (DMSO, Sigma-Aldrich, St. Louis, MO, cat. D2650) at 800-fold the tested concentration and stored at -70 degrees C prior to their use. All drugs and investigational agents were tested over a range starting from a high concentration at or near the clinical Cmax and decreasing in half-log increments. If the clinical Cmax for an agent had not been determined, the highest concentration tested was 10 microM.
Cell Culture. All cells were maintained in an incubator at 37 degrees C and 5% CO2 with 95% humidity. The PDC lines were cultured according to standard operating procedures established by the NCI PDMR (https://pdmr.cancer.gov/sops/default.htm). Briefly, all PDCs were thawed and cultured in Matrigel-coated flasks prepared with a working solution of 1X Ham's F-12 nutrient mix, without supplementation (Invitrogen, Waltham, MA, cat. 11765054), 100 U/mL penicillin-streptomycin (Invitrogen, cat. 15140122), and 2.5% Matrigel (Corning Inc., Corning, NY, cat. 354248) for the first three passages. All PDCs were cultured in complete DMEM/F-12 media containing advanced DMEM/F-12 (Invitrogen, cat. 12634028), 4.9% defined fetal bovine serum, heat inactivated (HyClone Laboratories Inc., Logan, UT, cat. SH30070.03HI), 389 ng/mL hydrocortisone (Sigma-Aldrich, cat. H4001), 9.7 ng/mL human EGF recombinant protein (Invitrogen, cat. PHG0313), 23.4 microg/mL adenine (Sigma-Aldrich, cat. A2786), 97.3 U/mL penicillin-streptomycin (Invitrogen, cat. 15140122), 1.9 mM L-glutamine (Invitrogen, cat. 25030081), and 9.7 microM Y-27632 dihydrochloride (Tocris Bioscience, Bristol, United Kingdom, cat. 1254). The PDCs were cultured in complete DMEM/F12 media without 9.7 microM Y-27632 dihydrochloride for at least two passages prior to the screen. The established cell line HOP-62 was cultured in RPMI 1640 medium, HEPES (Invitrogen, cat. 22400105) with 10% defined fetal bovine serum (HyClone Laboratories Inc., cat. SH30070.03) and 2 mM L-glutamine (Invitrogen, cat. 25030081). The pooled donor HUVEC were cultured in endothelial cell growth medium 2 (PromoCell, Heidelberg, Germany, cat. C-22011) and the hMSC were cultured in mesenchymal stem cell growth medium 2 (PromoCell, cat. C-28009). For all experiments, HUVEC and hMSC were used at passages </=5, while the malignant cell lines were used at passages </=15. […]

[1] = second compound 0.1 µM, first compound 0.0316 µM
[2] = second compound 0.1 µM, first compound 0.1 µM
[3] = second compound 0.316 µM, first compound 0.0316 µM
[4] = second compound 0.316 µM, first compound 0.1 µM
[5] = second compound 1 µM, first compound 0.0316 µM
[6] = second compound 1 µM, first compound 0.1 µM
[7] = second compound 3.16 µM, first compound 0.0316 µM
[8] = second compound 3.16 µM, first compound 0.1 µM
[9] = second compound 10 µM, first compound 0.0316 µM
[10] = second compound 10 µM, first compound 0.1 µM
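Note: spheroids exposed to agents for 7 days before readout.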

`CC(C)n1nc(-c2ccc3oc(N)nc3c2)c2c(N)ncnc21` + C=CC(=O)N1CCN(c2nc(=O)n(-c3c(C)ccnc3C(C)C)c3nc(-c4c(O)cccc4F)c(F)cc23)C(C)C1 showed an IC50 (second compound 0.1 µM) of 37 nM, an IC50 (second compound 0.316 µM) of 38 nM and an IC50 (second compound 1 µM) of 24 nM. It also gave an IC50 (second compound 3.16 µM) of 13.7 nM, an IC50 (second compound 10 µM) of 3.9 nM and a viability, T/C (second compound 0.1 µM, first compound 0.000316 µM) of 97.8%. For the same compound, the viability, T/C (second compound 0.1 µM, first compound 0.001 µM) was 82.4%, the viability, T/C (second compound 0.1 µM, first compound 0.00316 µM) was 74.6% and the viability, T/C (second compound 0.1 µM, first compound 0.01 µM) was 61%. It also gave a viability, T/C [1] of 50.5%, a viability, T/C [2] of 42.7% and a viability, T/C (second compound 0.316 µM, first compound 0.000316 µM) of 98.8%. For the same compound, the viability, T/C (second compound 0.316 µM, first compound 0.001 µM) was 82.9%, the viability, T/C (second compound 0.316 µM, first compound 0.00316 µM) was 72.2% and the viability, T/C (second compound 0.316 µM, first compound 0.01 µM) was 63.9%. It also gave a viability, T/C [3] of 51.2%, a viability, T/C [4] of 41.6% and a viability, T/C (second compound 1 µM, first compound 0.000316 µM) of 98.4%. For the same compound, the viability, T/C (second compound 1 µM, first compound 0.001 µM) was 77.6%, the viability, T/C (second compound 1 µM, first compound 0.00316 µM) was 68.8% and the viability, T/C (second compound 1 µM, first compound 0.01 µM) was 58.3%. It also gave a viability, T/C [5] of 47.9%, a viability, T/C [6] of 40.2% and a viability, T/C (second compound 3.16 µM, first compound 0.000316 µM) of 112%. It also gave a viability, T/C (second compound 3.16 µM, first compound 0.001 µM) of 77.4%, a viability, T/C (second compound 3.16 µM, first compound 0.00316 µM) of 68.3% and a viability, T/C (second compound 3.16 µM, first compound 0.01 µM) of 51.5%. The viability, T/C [7] was 43.7%, the viability, T/C [8] was 40.4% and the viability, T/C (second compound 10 µM, first compound 0.000316 µM) was 74.7%. The viability, T/C (second compound 10 µM, first compound 0.001 µM) was 59%, the viability, T/C (second compound 10 µM, first compound 0.00316 µM) was 49.9% and the viability, T/C (second compound 10 µM, first compound 0.01 µM) was 46.1%. It also gave a viability, T/C [9] of 40.1% and a viability, T/C [10] of 32.9%.
In the case of `COc1cc2nccc(Oc3ccc(NC(=O)C4(C(=O)Nc5ccc(F)cc5)CC4)cc3)c2cc1OC` + C=CC(=O)N1CCN(c2nc(=O)n(-c3c(C)ccnc3C(C)C)c3nc(-c4c(O)cccc4F)c(F)cc23)C(C)C1, the IC50 (second compound 0.1 µM) is reported as > 10000 nM, the IC50 (second compound 0.316 µM) is reported as > 10000 nM and the IC50 (second compound 1 µM) is reported as > 10000 nM. For the same compound, the IC50 (second compound 3.16 µM) was > 10000 nM, the IC50 (second compound 10 µM) was 2400 nM and the viability, T/C [1] was 123%. For the same compound, the viability, T/C [2] was 125%, the viability, T/C (second compound 0.1 µM, first compound 0.316 µM) was 142% and the viability, T/C (second compound 0.1 µM, first compound 1 µM) was 113%. For the same compound, the viability, T/C (second compound 0.1 µM, first compound 3.16 µM) was 81.4%, the viability, T/C (second compound 0.1 µM, first compound 10 µM) was 75.6% and the viability, T/C [3] was 124%. The viability, T/C [4] was 117%, the viability, T/C (second compound 0.316 µM, first compound 0.316 µM) was 117% and the viability, T/C (second compound 0.316 µM, first compound 1 µM) was 126%. It also gave a viability, T/C (second compound 0.316 µM, first compound 3.16 µM) of 90.4%, a viability, T/C (second compound 0.316 µM, first compound 10 µM) of 77.7% and a viability, T/C [5] of 118%. It also gave a viability, T/C [6] of 122%, a viability, T/C (second compound 1 µM, first compound 0.316 µM) of 114% and a viability, T/C (second compound 1 µM, first compound 1 µM) of 126%. It also gave a viability, T/C (second compound 1 µM, first compound 3.16 µM) of 86.4%, a viability, T/C (second compound 1 µM, first compound 10 µM) of 77.6% and a viability, T/C [7] of 117%. It also gave a viability, T/C [8] of 122%, a viability, T/C (second compound 3.16 µM, first compound 0.316 µM) of 123% and a viability, T/C (second compound 3.16 µM, first compound 1 µM) of 106%. For the same compound, the viability, T/C (second compound 3.16 µM, first compound 3.16 µM) was 78.6%, the viability, T/C (second compound 3.16 µM, first compound 10 µM) was 77.7% and the viability, T/C [9] was 75.6%. The viability, T/C [10] was 72.2%, the viability, T/C (second compound 10 µM, first compound 0.316 µM) was 62.3% and the viability, T/C (second compound 10 µM, first compound 1 µM) was 86.2%. It also gave a viability, T/C (second compound 10 µM, first compound 3.16 µM) of 35.8% and a viability, T/C (second compound 10 µM, first compound 10 µM) of 48.9%.
